The source made the active and inactive calls. No rule for the calls is given here.
Tested on: CCRIS mutagenicity, Ames/micronucleus/aberration tests
Experiment: CCRIS mutagenicity studies
[1] = Test System: AMES SALMONELLA TYPHIMURIUM, Strain/Indicator: TA98, Metabolic Activation: NONE, Method: PREINCUBATION
[2] = Test System: AMES SALMONELLA TYPHIMURIUM, Strain/Indicator: TA100, Metabolic Activation: NONE, Method: PREINCUBATION
[3] = Test System: AMES SALMONELLA TYPHIMURIUM, Strain/Indicator: TA1535, Metabolic Activation: NONE, Method: PREINCUBATION
[4] = Test System: AMES SALMONELLA TYPHIMURIUM, Strain/Indicator: TA100, Metabolic Activation: NONE, Method: STANDARD PLATE

Q: Which results are given for `c1ccc2cc(Nc3ccc(Nc4ccc5ccccc5c4)cc3)ccc2c1`?
A: mutagenic call (End Point: IN VITRO CHROMOSOMAL ABERRATIONS, Test System: CHINESE HAMSTER LUNG CELLS (CHL), Metabolic Activation: NONE): active; positive (structural changes); mutagenic call (End Point: IN VITRO CHROMOSOMAL ABERRATIONS, Test System: CHINESE HAMSTER OVARY CELLS (CHO), Metabolic Activation: NONE): inactive; negative; mutagenic call (End Point: IN VITRO CHROMOSOMAL ABERRATIONS, Test System: CHINESE HAMSTER OVARY CELLS (CHO), Metabolic Activation: RAT, LIVER, S-9, AROCLOR 1254): inactive; negative; mutagenic call (End Point: IN VITRO CHROMOSOMAL ABERRATIONS, Test System: CHL CELLS, Metabolic Activation: S-9): active; positive (structural changes); weak response; mutagenic call (End Point: IN VITRO CHROMOSOMAL ABERRATIONS, Test System: CHO CELLS, Metabolic Activation: S-9): active; positive (structural changes); mutagenic call (Test System: AMES SALMONELLA TYPHIMURIUM, Strain/Indicator: TA98, Metabolic Activation: HAMSTER, LIVER, S-9, AROCLOR 1254 (30%), Method: PREINCUBATION): active; positive; mutagenic call [1]: inactive; negative; mutagenic call (Test System: AMES SALMONELLA TYPHIMURIUM, Strain/Indicator: TA98, Metabolic Activation: RAT LIVER S-9, PHENOBARBITAL AND BETA-NAPHTHOFLAVONE, Method: PREINCUBATION): inactive; negative; mutagenic call (Test System: AMES SALMONELLA TYPHIMURIUM, Strain/Indicator: TA98, Metabolic Activation: RAT, LIVER, S-9, AROCLOR 1254 (30%), Method: PREINCUBATION): inactive; negative; mutagenic call (Test System: AMES SALMONELLA TYPHIMURIUM, Strain/Indicator: TA100, Metabolic Activation: HAMSTER, LIVER, S-9, AROCLOR 1254 (30%), Method: PREINCUBATION): inactive; negative; mutagenic call [2]: inactive; negative; mutagenic call (Test System: AMES SALMONELLA TYPHIMURIUM, Strain/Indicator: TA100, Metabolic Activation: RAT LIVER S-9, PHENOBARBITAL AND BETA-NAPHTHOFLAVONE, Method: PREINCUBATION): inactive; negative; mutagenic call (Test System: AMES SALMONELLA TYPHIMURIUM, Strain/Indicator: TA100, Metabolic Activation: RAT, LIVER, S-9, AROCLOR 1254 (30%), Method: PREINCUBATION): inactive; negative; mutagenic call [3]: inactive; negative; mutagenic call (Test System: AMES SALMONELLA TYPHIMURIUM, Strain/Indicator: TA1535, Metabolic Activation: RAT LIVER S-9, PHENOBARBITAL AND BETA-NAPHTHOFLAVONE, Method: PREINCUBATION): inactive; negative; mutagenic call (Test System: AMES SALMONELLA TYPHIMURIUM, Strain/Indicator: TA1537, Metabolic Activation: NONE, Method: PREINCUBATION): inactive; negative; mutagenic call (Test System: AMES SALMONELLA TYPHIMURIUM, Strain/Indicator: TA1537, Metabolic Activation: RAT LIVER S-9, PHENOBARBITAL AND BETA-NAPHTHOFLAVONE, Method: PREINCUBATION): inactive; negative; mutagenic call (Test System: AMES SALMONELLA TYPHIMURIUM, Strain/Indicator: TA1538, Metabolic Activation: NONE, Method: PREINCUBATION): inactive; negative; mutagenic call (Test System: AMES SALMONELLA TYPHIMURIUM, Strain/Indicator: TA1538, Metabolic Activation: RAT LIVER S-9, PHENOBARBITAL AND BETA-NAPHTHOFLAVONE, Method: PREINCUBATION): inactive; negative; mutagenic call (Test System: E.COLI, Strain/Indicator: WP2UVRA, Metabolic Activation: NONE, Method: PREINCUBATION): inactive; negative; mutagenic call (Test System: E.COLI, Strain/Indicator: WP2UVRA, Metabolic Activation: RAT LIVER S-9, PHENOBARBITAL AND BETA-NAPHTHOFLAVONE, Method: PREINCUBATION): inactive; negative

Q: What does the source list for `O=c1c2ccc3c4c(ccc(c24)c2nc4ccccc4n12)c(=O)n1c2ccccc2nc31`?
A: mutagenic call (Test System: AMES SALMONELLA TYPHIMURIUM, Strain/Indicator: TA97, Metabolic Activation: HAMSTER, LIVER, S-9, AROCLOR 1254 (10%), Method: PREINCUBATION): inactive; negative; mutagenic call (Test System: AMES SALMONELLA TYPHIMURIUM, Strain/Indicator: TA97, Metabolic Activation: NONE, Method: PREINCUBATION): active; positive; mutagenic call (Test System: AMES SALMONELLA TYPHIMURIUM, Strain/Indicator: TA97, Metabolic Activation: RAT, LIVER, S-9, AROCLOR 1254 (10%), Method: PREINCUBATION): inactive; negative; mutagenic call (Test System: AMES SALMONELLA TYPHIMURIUM, Strain/Indicator: TA98, Metabolic Activation: HAMSTER, LIVER, S-9, AROCLOR 1254 (10%), Method: PREINCUBATION): active; positive; mutagenic call [1]: active; positive; mutagenic call (Test System: AMES SALMONELLA TYPHIMURIUM, Strain/Indicator: TA98, Metabolic Activation: RAT, LIVER, S-9, AROCLOR 1254 (10%), Method: PREINCUBATION): inactive; negative; mutagenic call (Test System: AMES SALMONELLA TYPHIMURIUM, Strain/Indicator: TA100, Metabolic Activation: HAMSTER, LIVER, S-9, AROCLOR 1254 (10%), Method: PREINCUBATION): inactive; negative; mutagenic call [2]: inactive; negative; mutagenic call (Test System: AMES SALMONELLA TYPHIMURIUM, Strain/Indicator: TA100, Metabolic Activation: RAT, LIVER, S-9, AROCLOR 1254 (10%), Method: PREINCUBATION): inactive; negative; mutagenic call (Test System: AMES SALMONELLA TYPHIMURIUM, Strain/Indicator: TA1535, Metabolic Activation: HAMSTER, LIVER, S-9, AROCLOR 1254 (10%), Method: PREINCUBATION): inactive; negative; mutagenic call [3]: inactive; negative; mutagenic call (Test System: AMES SALMONELLA TYPHIMURIUM, Strain/Indicator: TA1535, Metabolic Activation: RAT, LIVER, S-9, AROCLOR 1254 (10%), Method: PREINCUBATION): inactive; negative

Q: `CCCCOc1cc(C)ccc1C(=O)NOC(C)=O` was tested. Which mutagenic call [4] did it give?
A: active; positive

Q: What about the mutagenic call (Test System: AMES SALMONELLA TYPHIMURIUM, Strain/Indicator: TA100, Metabolic Activation: RAT, S-9, AROCLOR, Method: STANDARD PLATE) of the same molecule?
A: active; positive

Q: Which mutagenic call [1] does the source give for `COc1cc2c(c3oc(=O)c4c(c13)CCC4=O)[C@H]1[C@@H](O2)O[C@@H]2O[C@@H]21` here?
A: active; positive

Q: What about the mutagenic call (Test System: AMES SALMONELLA TYPHIMURIUM, Strain/Indicator: TA98, Metabolic Activation: RAT, LIVER, S-9, AROCLOR 1254, Method: PREINCUBATION) of the same molecule?
A: active; positive

Q: What about the mutagenic call (Test System: AMES SALMONELLA TYPHIMURIUM, Strain/Indicator: TA100, Metabolic Activation: NONE, Method: MICROSUSPENSION) of the same molecule?
A: active; positive

Q: And the mutagenic call [2]?
A: active; positive

Q: And the mutagenic call (Test System: AMES SALMONELLA TYPHIMURIUM, Strain/Indicator: TA100, Metabolic Activation: RAT, LIVER, S-9, AROCLOR 1254, Method: MICROSUSPENSION)?
A: active; positive

Q: What about the mutagenic call (Test System: AMES SALMONELLA TYPHIMURIUM, Strain/Indicator: TA100, Metabolic Activation: RAT, LIVER, S-9, AROCLOR 1254, Method: PREINCUBATION) of the same molecule?
A: active; positive

Q: For `O=S(=O)(Nc1ccc(Cl)cc1)c1cccc2cccnc12`, which mutagenic call (Test System: AMES SALMONELLA TYPHIMURIUM, Strain/Indicator: TA98, Metabolic Activation: NONE, Method: STANDARD PLATE) is on record?
A: inactive; negative

Q: What about the mutagenic call (Test System: AMES SALMONELLA TYPHIMURIUM, Strain/Indicator: TA98, Metabolic Activation: RAT, LIVER, S-9, AROCLOR 1254, Method: STANDARD PLATE) of the same molecule?
A: inactive; negative

Q: And the mutagenic call [4]?
A: inactive; negative

Q: And the mutagenic call (Test System: AMES SALMONELLA TYPHIMURIUM, Strain/Indicator: TA100, Metabolic Activation: RAT, LIVER, S-9, AROCLOR 1254, Method: STANDARD PLATE)?
A: inactive; negative

Q: What about the mutagenic call (Test System: AMES SALMONELLA TYPHIMURIUM, Strain/Indicator: TA1535, Metabolic Activation: NONE, Method: STANDARD PLATE) of the same molecule?
A: inactive; negative

Q: What about the mutagenic call (Test System: AMES SALMONELLA TYPHIMURIUM, Strain/Indicator: TA1535, Metabolic Activation: RAT, LIVER, S-9, AROCLOR 1254, Method: STANDARD PLATE) of the same molecule?
A: inactive; negative

Q: And the mutagenic call (Test System: AMES SALMONELLA TYPHIMURIUM, Strain/Indicator: TA1537, Metabolic Activation: NONE, Method: STANDARD PLATE)?
A: inactive; negative

Q: And the mutagenic call (Test System: AMES SALMONELLA TYPHIMURIUM, Strain/Indicator: TA1537, Metabolic Activation: RAT, LIVER, S-9, AROCLOR 1254, Method: STANDARD PLATE)?
A: inactive; negative

— PubChem BioAssay AID1259407 (Chemical Carcinogenesis Research Information System (CCRIS), 2018)
